# Measurements from ChEMBL document CHEMBL1133444, “N-cycloalkyl derivatives of adenosine and 1-deazaadenosine as agonists and partial agonists of the A(1) adenosine receptor” (J Med Chem, 2000).
# Assays:
# Adenosine receptor A1 [1] = molecular target: T1, Adenosine receptor A1 (Rattus norvegicus, UniProt P25099)
# T1 sequence (P25099 whole entry): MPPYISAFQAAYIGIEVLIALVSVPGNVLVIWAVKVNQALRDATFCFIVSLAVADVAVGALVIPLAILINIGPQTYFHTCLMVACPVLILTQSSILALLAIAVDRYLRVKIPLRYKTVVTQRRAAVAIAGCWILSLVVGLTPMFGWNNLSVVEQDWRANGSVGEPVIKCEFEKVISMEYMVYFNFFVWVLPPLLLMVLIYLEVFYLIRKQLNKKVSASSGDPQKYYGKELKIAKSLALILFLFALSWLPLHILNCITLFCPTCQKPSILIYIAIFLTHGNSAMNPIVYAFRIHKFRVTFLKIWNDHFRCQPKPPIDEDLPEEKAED
# Adenosine receptor A1 [2] = molecular target: T1, Adenosine receptor A1; assay: Stimulation of [35S]GTP-gamma-S, binding to rat brain membranes by adenosine A1 receptor activation; format: functional, cell membranes, Membrane
# [3] = molecular target: T2, Adenosine receptor A1 (Rattus norvegicus) (UniProt P25099)
# T2 sequence (whole entry): T1 sequence (P25099 whole entry)
# Description: Binding affinity for adenosine A1 receptor, was assessed from the ability to displace [3H]DPCPX (without GTP) from rat cortical membranes, activity expressed as KH (affinity for the high-affinity state)
# [4] = molecular target: T2, Adenosine receptor A1 (Rattus norvegicus); remark: listed apart in the source
# Description: Binding affinity for adenosine A1 receptor, was assessed from the ability to displace [3H]DPCPX (without GTP) from rat cortical membranes, activity expressed as KL (affinity for the low-affinity state)
# [5] = molecular target: T2, Adenosine receptor A1 (Rattus norvegicus); assay: Percent relative intrinsic activity with reference to CCPA
# Adenosine receptor A1 [6] = molecular target: T1, Adenosine receptor A1; assay: Binding affinity for adenosine A1 receptor, was assessed from the ability to displace [3H]-DPCPX (without GTP) from rat cortical membranes.
# Adenosine receptor A1 [7] = molecular target: T1, Adenosine receptor A1; assay: Binding affinity for adenosine A1 receptor was assayed by displacement of [3H]DPCPX from rat cortical membranes.; format: cell membranes, Membrane
# Adenosine receptor A2a = Adenosine receptor A2a (Rattus norvegicus, UniProt P30543); assay: Binding affinity for adenosine A2A receptor was determined by displacement of [3H]CGS 21680 from rat striatal membranes.
# Sequence of Adenosine receptor A2a (P30543 whole entry): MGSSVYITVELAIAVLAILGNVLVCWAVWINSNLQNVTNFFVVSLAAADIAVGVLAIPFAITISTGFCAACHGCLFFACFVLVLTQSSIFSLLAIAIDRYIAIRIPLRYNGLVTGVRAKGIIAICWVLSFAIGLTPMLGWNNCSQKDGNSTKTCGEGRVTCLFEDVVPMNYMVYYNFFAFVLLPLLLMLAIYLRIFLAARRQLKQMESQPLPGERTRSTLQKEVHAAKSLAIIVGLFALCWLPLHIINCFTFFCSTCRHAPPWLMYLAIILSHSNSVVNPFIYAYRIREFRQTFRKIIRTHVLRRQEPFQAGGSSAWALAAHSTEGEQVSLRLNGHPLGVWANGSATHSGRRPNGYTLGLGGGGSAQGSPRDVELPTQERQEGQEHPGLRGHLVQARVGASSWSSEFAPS
# [8] = molecular target: T2, Adenosine receptor A1 (Rattus norvegicus); remark: listed apart in the source
# [9] = % of the receptors in the high affinity state
# 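For KH in this document: displacement of [3H]DPCPX binding from rat cortical membranes in the absence of GTP, KH giving affinity for the high-affinity receptor state.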
# 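For KL in this document: displacement of [3H]DPCPX from rat cortical membranes, assayed without GTP, with KL giving affinity for the low-affinity state of the receptor.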
SMILES,Ki (Adenosine receptor A1 [1]),EC50 (Adenosine receptor A1 [2]),KH [3],KL [4],Ki (Adenosine receptor A1 [6]),Ki (Adenosine receptor A1 [7]),Ki (Adenosine receptor A2a),RIA [8],other results
OC[C@H]1O[C@@H](n2cnc3c(NC4CC4)nc(Cl)nc32)C[C@@H]1O,14.3 µM,6.18 µM,115 nM,6.03 µM,0.724 µM,,,,RIA [5]: 20.8%
OC[C@H]1O[C@@H](n2cnc3c(NC4CCC4)ncnc32)[C@H](O)[C@@H]1O,,,,,,0.00392 µM,0.42 µM,,
OC[C@H]1O[C@@H](n2cnc3c(NC4CCCC4)nc(Cl)nc32)C[C@@H]1O,1.32 µM,1.56 µM,18.5 nM,0.8 µM,0.154 µM,,,8.3,
OC[C@H]1O[C@@H](n2cnc3c(NC4CCC4)nc(Cl)nc32)C[C@@H]1O,3.6 µM,3.71 µM,33.3 nM,1.92 µM,0.245 µM,,,19.5,
OC[C@H]1O[C@@H](n2cnc3c(NC4CC4)ncnc32)[C@H](O)[C@@H]1O,,0.709 µM,,,,0.0267 µM,0.51 µM,,
OC[C@H]1O[C@@H](n2cnc3c(NC4CC4)ccnc32)[C@H](O)[C@@H]1O,,1.53 µM,,,,0.326 µM,16.4 µM,,
OC[C@H]1O[C@@H](n2cnc3c(NC4CCCC4)ncnc32)C[C@@H]1O,10.2 µM,5.76 µM,39.3 nM,3.52 µM,0.212 µM,,,42.1,
OC[C@H]1O[C@@H](n2cnc3c(NC4CCCCC4)nc(Cl)nc32)C[C@@H]1O,2.56 µM,,61.7 nM,1.59 µM,0.497 µM,,,0,
OC[C@H]1O[C@@H](n2cnc3c(NC4CCCCCCC4)ncnc32)C[C@@H]1O,9.31 µM,,84.9 nM,4.19 µM,0.586 µM,,,0,RHA [9]: 45.9%
OC[C@H]1O[C@@H](n2cnc3c(NC4CCCCCC4)ncnc32)C[C@@H]1O,20.4 µM,13.7 µM,124 nM,7.41 µM,0.769 µM,,,24.9,
OC[C@H]1O[C@@H](n2cnc3c(NC4CC4)ncnc32)C[C@@H]1O,,,,,,,,0,
OC[C@H]1O[C@@H](n2cnc3c(NC4CCCCC4)ncnc32)C[C@@H]1O,16.7 µM,9.64 µM,92.5 nM,7.33 µM,0.412 µM,,,40.1,
OC[C@H]1O[C@@H](n2cnc3c(NC4CC4)nc(Cl)nc32)[C@H](O)[C@@H]1O,,0.0573 µM,,,,,2.06 µM,,
OC[C@H]1O[C@@H](n2cnc3c(NC4CCC4)ncnc32)C[C@@H]1O,23.6 µM,5.11 µM,121 nM,8.3 µM,0.524 µM,,,33.8,
OC[C@H]1O[C@@H](n2cnc3c(NC4CCCCCCC4)nc(Cl)nc32)C[C@@H]1O,1.41 µM,,23.6 nM,1.02 µM,0.659 µM,,,0,RHA [9]: 14.5%

# More lines, main results first:
Ki (Adenosine receptor A1 [1]),EC50 (Adenosine receptor A1 [2]),KH [3],KL [4],Ki (Adenosine receptor A1 [6]),Ki (Adenosine receptor A1 [7]),Ki (Adenosine receptor A2a),RIA [8],SMILES,other results
,,,,,0.0317 µM,0.59 µM,,OC[C@H]1O[C@@H](n2cnc3c(NC4CCCCC4)nc(Cl)nc32)[C@H](O)[C@@H]1O,
,,,,,0.0053 µM,0.46 µM,,OC[C@H]1O[C@@H](n2cnc3c(NC4CCC4)nc(Cl)nc32)[C@H](O)[C@@H]1O,
,,,,,0.122 µM,4.23 µM,,OC[C@H]1OC(n2cnc3c(NC4CCCCCCC4)nc(Cl)nc32)[C@H](O)[C@@H]1O (some centres not stated),
,6.36 µM,,,,0.364 µM,9.2 µM,,OC[C@H]1OC(n2cnc3c(NC4CCCCCC4)ccnc32)[C@H](O)[C@@H]1O (some centres not stated),
,,,,,0.109 µM,6.55 µM,,OC[C@H]1O[C@@H](n2cnc3c(NC4CCC4)ccnc32)[C@H](O)[C@@H]1O,
,,,,,0.595 µM,20 µM,,OC[C@H]1OC(n2cnc3c(NC4CCCCCCC4)cc(Cl)nc32)[C@H](O)[C@@H]1O (some centres not stated),
,,,,,,3.37 µM,,OC[C@H]1O[C@@H](n2cnc3c(NC4CCCC4)ncnc32)[C@H](O)[C@@H]1O [N6-CYCLOPENTYLADENOSINE],
,0.431 µM,,,,0.0379 µM,1.1 µM,,OC[C@H]1OC(n2cnc3c(NC4CCCCCC4)nc(Cl)nc32)[C@H](O)[C@@H]1O (some centres not stated),
,,,,,0.041 µM,3.11 µM,,OC[C@H]1O[C@@H](n2cnc3c(NC4CCC4)cc(Cl)nc32)[C@H](O)[C@@H]1O,
,0.475 µM,,,,0.1 µM,10.1 µM,,OC[C@H]1O[C@@H](n2cnc3c(NC4CCCC4)ccnc32)[C@H](O)[C@@H]1O,
,0.408 µM,,,,0.049 µM,2.84 µM,,OC[C@H]1O[C@@H](n2cnc3c(NC4CCCC4)cc(Cl)nc32)[C@H](O)[C@@H]1O,
,,,,,0.0535 µM,4.18 µM,,OC[C@H]1O[C@@H](n2cnc3c(NC4CCCCCCC4)ncnc32)[C@H](O)[C@@H]1O,
1.09 µM,,30.7 nM,0.752 µM,0.369 µM,,,0,OC[C@H]1O[C@@H](n2cnc3c(NC4CCCCCC4)nc(Cl)nc32)C[C@@H]1O,
,0.704 µM,,,,0.151 µM,9.64 µM,,OC[C@H]1O[C@@H](n2cnc3c(NC4CC4)cc(Cl)nc32)[C@H](O)[C@@H]1O,
,0.0864 µM,,,,0.0196 µM,3.15 µM,,OC[C@H]1O[C@@H](n2cnc3c(NC4CCCCCC4)ncnc32)[C@H](O)[C@@H]1O,
,,,,,0.169 µM,5.12 µM,,OC[C@H]1O[C@@H](n2cnc3c(NC4CCCCC4)ccnc32)[C@H](O)[C@@H]1O,
,6.58 µM,,,,0.247 µM,4.87 µM,,OC[C@H]1O[C@@H](n2cnc3c(NC4CCCCCC4)cc(Cl)nc32)[C@@H](O)C1O (some centres not stated),
,,,,,0.268 µM,5.21 µM,,OC[C@H]1O[C@@H](n2cnc3c(NC4CCCCC4)cc(Cl)nc32)[C@H](O)[C@@H]1O,
,,,,,0.539 µM,13.7 µM,,OC[C@H]1OC(n2cnc3c(NC4CCCCCCC4)ccnc32)[C@H](O)[C@@H]1O (some centres not stated),
